Assay [1] addresses MAP4K1 (HPK1) (Homo sapiens (Human), UniProt Q92918). The assay is described as follows: MAP4K1 (HPK1) biochemical enzymatic activity, electrophoretic mobility shift (EZReader 2), ATP at APPKM (26 μM). A digest of the protocol:
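Phosphorylated and unphosphorylated peptide were separated electrophoretically, and the product/substrate peak ratio served as readout. Reactions held 0.1-15 nM HPK1, 1.5 μM fluorescent peptide and 26 μM ATP (apparent Km) in pH 7.5 HEPES buffer with MgCl2 and DTT. Compounds were tested as 4-fold, 10-point dilutions in 1% DMSO for 60-180 min at 25° C, then quenched with EDTA.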
A general note: A gel shift assay detects complexes by their altered migration in electrophoresis.

In assay [2] the test system is expanded CD3+ T cells. The assay is described as follows: T cell enhancement of cytokines: IL2 measurement (HTRF) in expanded CD3+ T cells stimulated with anti-CD3/anti-CD28. The note with it: IL-2 measurement. It counts as cell-based, human. The procedure: T cells are isolated from whole blood of healthy donors by immunomagnetic negative selection following manufacture's protocol (StemCell Technologies, human T cell isolation kit). Purity of isolated cells is assessed by flow cytometry and yields 95-98% CD3^+ T cells. For expansion of T cells, 1×10^6 cells/well are plated in serum free cell expansion media (ThermoFisher) containing 30 U of recombinant human IL2 (R&D) and stimulated with 25 ul of CD3/CD28 beads (Invitrogen) in 24 well plates for 3-4 days. T cells are then expanded in 175 cm flasks and maintained at a cell density of 1 to 2.5×10^6 cells/ml days by addition of ⅔ of fresh media every 2-3 days. After 10-14 days, cells are frozen in BamBanker freezing media (Thermo) and stored in liquid nitrogen.
For IL2 measurement, expanded CD3^+ T cells are dispensed at 100K cells/well (cultured in X-VIVO 10 Serum-free media) and are stimulated with plate-bound anti-CD3 and soluble anti-CD28 in the presence of vehicle or compound of the disclosure at various concentrations for 24 h. As outlined in the manufacturer's protocol (Cisbio), 16 μL of conditioned media is transferred to a white 384-well low volume plate. Following a 24 h incubation with the anti-IL2 antibodies, the homogenous time resolved fluorescence (HTRF) is measured.

The mark [3] stands for this setting: Homo sapiens, T-cell, class designation.
[4] abbreviates: Homo sapiens, T-cell, numeric value.

By pIC50 is commonly meant the negative decadic logarithm of the IC50, by convention in mol/L. For orientation: pEC50 means −log10 of the EC50, conventionally taken in molar units.

pEC50, pIC50: −log10 of the molar value. Where only a bound is given, the exact number is not on record here.

Chain of MAP4K1 (HPK1) (Q92918 whole entry): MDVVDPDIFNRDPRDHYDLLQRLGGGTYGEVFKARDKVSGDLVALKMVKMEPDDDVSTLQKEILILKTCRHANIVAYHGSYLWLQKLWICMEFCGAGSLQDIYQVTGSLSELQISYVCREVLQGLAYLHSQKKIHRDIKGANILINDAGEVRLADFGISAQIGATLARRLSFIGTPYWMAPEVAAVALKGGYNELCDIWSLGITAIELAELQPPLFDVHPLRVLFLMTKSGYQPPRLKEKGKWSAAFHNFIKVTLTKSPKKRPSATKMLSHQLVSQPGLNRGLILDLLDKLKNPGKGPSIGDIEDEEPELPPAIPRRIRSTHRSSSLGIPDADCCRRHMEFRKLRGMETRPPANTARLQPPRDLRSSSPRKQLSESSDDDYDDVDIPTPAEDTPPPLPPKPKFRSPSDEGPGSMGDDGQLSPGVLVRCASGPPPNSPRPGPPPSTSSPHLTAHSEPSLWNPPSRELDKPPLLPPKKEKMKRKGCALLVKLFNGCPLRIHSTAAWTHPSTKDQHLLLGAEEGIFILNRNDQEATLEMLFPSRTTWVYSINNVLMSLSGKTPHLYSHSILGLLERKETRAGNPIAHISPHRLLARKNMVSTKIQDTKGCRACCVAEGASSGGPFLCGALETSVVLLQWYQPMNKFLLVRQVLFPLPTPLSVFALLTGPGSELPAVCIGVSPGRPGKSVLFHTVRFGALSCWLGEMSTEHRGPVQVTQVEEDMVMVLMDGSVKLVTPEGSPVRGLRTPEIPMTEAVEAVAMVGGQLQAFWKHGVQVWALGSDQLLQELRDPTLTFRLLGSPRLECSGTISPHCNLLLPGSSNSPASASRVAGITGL

`CC[C@@](C)(N)c1cnc(OC)c2cnc(Nc3ccc4c(n3)CC(C)(C)OC4=O)cc12` (single isomer, unassigned) [Compound 61]: the pIC50 was over 9.52 in assay [1] (class designation) and 9.82 in assay [1] (numeric value). Besides, the pEC50 in assay [2] (class designation) is over 7.46; in assay [2] (numeric value) it was 8.46.

Take `C[C@@H]1OC(=O)c2ccc(Nc3cc4c([C@](C)(N)C5CC5)cnc(OC5CC5)c4cn3)nc2[C@H]1C` (single isomer, unassigned) [Compound 75]: the pIC50 in assay [1] (numeric value) was 10.05. Moreover, the pEC50 is over 7.46 in assay [2] (setting [3]) and 8.14 in assay [2] (setting [4]).

With `C[C@@H]1c2nc(Nc3cc4c([C@](C)(N)C5CC5)ncc(OC5CC5)c4cn3)ccc2C(=O)OC1(C)C` (single isomer, unassigned) [Compound 76], the pIC50 in assay [1] (numeric value) is 9.92. The pEC50 in assay [2] (setting [3]) was over 7.46; in assay [2] (setting [4]), 8.19.

`C[C@](N)(c1cnc(OC2CC2)c2cnc(Nc3ccc4c(n3)CCNC4=O)cc12)C1CC1` (single isomer, unassigned) [Compound 106]: the pIC50 in assay [1] (numeric value) is 9.21. Also, the pEC50 in assay [2] (setting [3]) was 7.35 to 7.45; in assay [2] (setting [4]) it was 7.38.

Regarding `C[C@H]1COC(=O)c2ccc(Nc3cc4c([C@](C)(N)C5CC5)cnc(OC5CC5)c4cn3)nc21` (single isomer, unassigned) [Compound 117], the pIC50 in assay [1] (class designation) is over 9.52. For the same molecule, the pEC50 is over 7.46 in assay [2] (setting [3]) and 7.80 in assay [2] (setting [4]).

Turning to `C[C@@H]1COC(=O)c2ccc(Nc3cc4c([C@](C)(N)C5CC5)cnc(OC5CC5)c4cn3)nc21` (single isomer, unassigned) [Compound 118], the results for the pIC50 in assay [1] (class designation) and in assay [1] (numeric value) were 8.00 to 8.96 and 8.89, respectively. For the same molecule, the pEC50 in assay [2] (class designation) was under 7.26; in assay [2] (numeric value), 7.09.

For the molecule `CC[C@@](C)(N)c1cnc(OC2CC2)c2cnc(Nc3ccc4c(n3)CC(C)(C)OC4=O)cc12` (single isomer, unassigned) [Compound 132], the pIC50 in assay [1] (class designation) was over 9.52; in assay [1] (numeric value), 9.74. Also, the pEC50 in assay [2] (class designation) is over 7.46; in assay [2] (numeric value), 7.89.

Take `C[C@](N)(c1cnc(OC2CC2)c2cnc(Nc3ccc4c(n3)C3(CC3)COC4=O)cc12)C1CC1` (single isomer, unassigned) [Compound 146]: the pIC50 in assay [1] (numeric value) was 9.60. Also, the pEC50 was under 7.26 in assay [2] (setting [3]) and 7.22 in assay [2] (setting [4]).

Turning to `C[C@](N)(c1cnc(OC2CC2)c2cnc(Nc3ccc4c(n3)CC3(CC3)OC4=O)cc12)C1CC1` (single isomer, unassigned) [Compound 147], the pIC50 in assay [1] (numeric value) is 9.57. The pEC50 in assay [2] (setting [3]) is 7.35 to 7.45; in assay [2] (setting [4]) it was 7.34.

Regarding `CC1(C)COC(=O)c2ccc(Nc3cc4c([C@](C)(N)C5CC5)cnc(OC5CC5)c4cn3)nc21` (single isomer, unassigned) [Compound 151], the pIC50 in assay [1] (numeric value) is 9.66. For the same molecule, the pEC50 in assay [2] (setting [3]) was over 7.46; in assay [2] (setting [4]), 7.56.

For the molecule `CC[C@]1(C)OC(=O)c2ccc(Nc3cc4c([C@](C)(N)C5CC5)cnc(OC5CC5)c4cn3)nc21` (single isomer, unassigned) [Compound 152], the pIC50 is 9.00 to 9.51 in assay [1] (class designation) and 9.38 in assay [1] (numeric value). Moreover, the pEC50 was under 7.26 in assay [2] (class designation) and 7.26 in assay [2] (numeric value).

Consider `C[C@@H]1c2nc(Nc3cc4c([C@](C)(N)C5CC5)cnc(OC5CC5)c4cn3)ccc2C(=O)O[C@@H]1C` (single isomer, unassigned) [Compound 154], for which the pIC50 in assay [1] (class designation) was over 9.52; in assay [1] (numeric value) it was 10.10. Further, the pEC50 in assay [2] (class designation) was over 7.46; in assay [2] (numeric value) it was 7.96.

For `C[C@@H]1OC(=O)c2ccc(Nc3cc4c([C@](C)(N)C5CC5)cnc(OC5CC5)c4cn3)nc2[C@@H]1C` (single isomer, unassigned) [Compound 155], the pIC50 in assay [1] (class designation) is 9.00 to 9.51; in assay [1] (numeric value) it was 9.01. Also, the pEC50 in assay [2] (class designation) was under 7.26; in assay [2] (numeric value), 7.05.

As to `C[C@H]1OC(=O)c2ccc(Nc3cc4c([C@](C)(N)C5CC5)cnc(OC5CC5)c4cn3)nc2C12CC2` (single isomer, unassigned) [Compound 167], the values for the pIC50 in assay [1] (class designation) and in assay [1] (numeric value) were over 9.52 and 10.30, respectively. Further, the figures for the pEC50 in assay [2] (class designation) and in assay [2] (numeric value) were over 7.46 and 8.03, respectively.

Turning to `C[C@H]1OC(=O)c2ccc(Nc3cc4c([C@](C)(N)C5CC5)cnc(OC5CC5)c4cn3)nc2C1(C)C` (single isomer, unassigned) [Compound 171], the pIC50 in assay [1] (class designation) was over 9.52; in assay [1] (numeric value) it was 10.15. Also, the pEC50 in assay [2] (class designation) is over 7.46; in assay [2] (numeric value), 7.56.

Consider `CC[C@@](C)(N)c1cnc(OCC(F)(F)F)c2cnc(Nc3ccc4c(n3)[C@@H](C)[C@H](C)OC4=O)cc12` (single isomer, unassigned) [Compound 181], for which, in assay [1] (class designation), the pIC50 is over 9.52. The pEC50 in assay [2] (setting [3]) is over 7.46; in assay [2] (setting [4]) it was 7.82.

For `CC[C@@](C)(N)c1cnc(OCC(F)(F)F)c2cnc(Nc3ccc4c(n3)[C@@H](C)[C@H](C)OC4=O)cc12` (single isomer, unassigned) [Compound 182], the pIC50 was 8.00 to 8.96 in assay [1] (class designation) and 8.53 in assay [1] (numeric value). The negative logarithm of the EC50 (pEC50) in assay [2] (class designation) is 7.35 to 7.45; in assay [2] (numeric value), 7.41.

Consider `COCC(C)(N)c1cnc(OC2CC2)c2cnc(Nc3ccc4c(n3)[C@@H](C)[C@H](C)OC4=O)cc12` (single isomer, unassigned) [Compound 184, (7S,8R)-2-((5-((R)-2-Amino-1-methoxypropan-2-yl)-8-cyclopropoxy-2,7-naphthyridin-3-yl)amino)-7,8-dimethyl-7,8-dihydro-5H-pyrano[4,3-b]pyridin-5-one or (7S,8R)-2-((5-((S)-2-amino-1-methoxypropan-2-yl)-8-cyclopropoxy-2,7-naphthyridin-3-yl)amino)-7,8-dimethyl-7,8-dihydro-5H-pyrano[4,3-b]pyridin-5-one], for which the pIC50 in assay [1] (class designation) is over 9.52; in assay [1] (numeric value) it was 9.57. In addition, the results for the pEC50 in assay [2] (class designation) and in assay [2] (numeric value) were over 7.46 and 7.48, respectively.

As to `COc1ncc(C(C)(C)N)c2cc(Nc3ccnc(C(C)(C)C)n3)ncc12` [Compound 3, 5-(2-Aminopropan-2-yl)-N-(2-(tert-butyl)pyrimidin-4-yl)-8-methoxy-2,7-naphthyridin-3-amine], in assay [1] (numeric value), the pIC50 is 9.44. For the same molecule, the pEC50 in assay [2] (setting [3]) was under 7.26; in assay [2] (setting [4]), 6.97.

`COc1ccc(C(C)(C)N)c2cc(Nc3ccnc(C(C)(C)F)n3)ncc12` [Compound 5, 5-(2-Aminopropan-2-yl)-N-(2-(2-fluoropropan-2-yl)pyrimidin-4-yl)-8-methoxyisoquinolin-3-amine]: the pIC50 is 9.00 to 9.51 in assay [1] (class designation) and 9.43 in assay [1] (numeric value). Also, the pEC50 is 7.35 to 7.45 in assay [2] (setting [3]) and 7.43 in assay [2] (setting [4]).

`COc1ncc(C(C)(C)N)c2cc(Nc3ccnc(C(C)(C)F)n3)ncc12` [Compound 7]: the pIC50 was 9.00 to 9.51 in assay [1] (class designation) and 9.04 in assay [1] (numeric value). Besides, the negative logarithm of the EC50 (pEC50) was over 7.46 in assay [2] (setting [3]) and 7.66 in assay [2] (setting [4]).

Turning to `COc1ncc(C(C)(C)N)c2cc(Nc3ccc4c(n3)CCNC4=O)ncc12` [Compound 11], the pIC50 in assay [1] (class designation) is 9.00 to 9.51; in assay [1] (numeric value), 9.48. The pEC50 in assay [2] (setting [3]) was over 7.46; in assay [2] (setting [4]), 7.96.

In the case of `COc1ncc(C(C)(C)N)c2cc(Nc3ccc4c(n3)CCOC4=O)ncc12` [Compound 12], the figures for the pIC50 in assay [1] (class designation) and in assay [1] (numeric value) were 9.00 to 9.51 and 9.51, respectively. The pEC50 in assay [2] (setting [3]) is over 7.46; in assay [2] (setting [4]) it was 7.96.

Turning to `CC[C@H](C)n1nc(Nc2cc3c(C(C)(C)N)cnc(OC)c3cn2)ccc1=O` [Compound 14], the figures for the pIC50 in assay [1] (class designation) and in assay [1] (numeric value) were 9.00 to 9.51 and 9.19, respectively. Moreover, the pEC50 in assay [2] (class designation) is 7.26 to 7.35; in assay [2] (numeric value) it was 7.29.

For the molecule `CC[C@@H](C)n1nc(Nc2cc3c(C(C)(C)N)cnc(OC)c3cn2)ccc1=O` [Compound 15], in assay [1] (class designation), the pIC50 is 9.00 to 9.51. The pEC50 was over 7.46 in assay [2] (setting [3]) and 7.51 in assay [2] (setting [4]).

Regarding `CC[C@H](C)c1nc(Nc2cc3c(C(C)(C)N)cnc(OC)c3cn2)ccc1C#N` [Compound 19], the results for the negative logarithm of the IC50 (pIC50) in assay [1] (class designation) and in assay [1] (numeric value) were over 9.52 and 9.52, respectively. Besides, the results for the pEC50 in assay [2] (class designation) and in assay [2] (numeric value) were over 7.46 and 7.56, respectively.

In the case of `CC[C@H](C)c1nc(Nc2cc3c(C(C)(C)N)cnc(OC)c3cn2)cnc1C#N` [Compound 20], the pIC50 in assay [1] (class designation) is 9.00 to 9.51; in assay [1] (numeric value) it was 9.14. Moreover, the pEC50 is 7.26 to 7.35 in assay [2] (class designation) and 7.29 in assay [2] (numeric value).

`CC[C@@H](C)c1nc(Nc2cc3c(C(C)(C)N)cnc(OC)c3cn2)cnc1C#N` [Compound 21]: the pIC50 in assay [1] (class designation) is 9.00 to 9.51; in assay [1] (numeric value) it was 9.07. Further, the pEC50 in assay [2] (class designation) is 7.26 to 7.35; in assay [2] (numeric value), 7.31.

Take `COc1ncc(C(C)(C)N)c2cc(Nc3ccc4c(n3)C(C)(C)OC4=O)ncc12` [Compound 26]: the pIC50 in assay [1] (class designation) is 9.00 to 9.51; in assay [1] (numeric value), 9.26. In addition, the pEC50 in assay [2] (setting [3]) was over 7.46; in assay [2] (setting [4]) it was 7.85.
